# In US5807855A, “1-piperazino-1,2-dihydroindene derivatives” (priority 1992, dated 1998):
# Read-outs that look alike come from different tables or passages of the source.
# Assays:
# DA D1 receptor = DA D1 receptor (Rattus norvegicus, UniProt P18901); test: biochemical; type: binding; conditions: IC50, D1 3H-SCH
# DA D2 receptors = target: T1, DA D2 receptors (Rattus norvegicus, UniProt P61169); test: Inhibition of 3H-spiperone binding to DA D2 receptors in rat striatal membranes; conditions: rat striatal membranes, 3H-spiperone; read-out: Receptor Binding; IC50, D2 3H-Spi
# T1 construct: DA D2 receptors in rat striatal membranes; from tissue; host or cells: rat striatal membranes
# T1 sequence (P61169 whole entry): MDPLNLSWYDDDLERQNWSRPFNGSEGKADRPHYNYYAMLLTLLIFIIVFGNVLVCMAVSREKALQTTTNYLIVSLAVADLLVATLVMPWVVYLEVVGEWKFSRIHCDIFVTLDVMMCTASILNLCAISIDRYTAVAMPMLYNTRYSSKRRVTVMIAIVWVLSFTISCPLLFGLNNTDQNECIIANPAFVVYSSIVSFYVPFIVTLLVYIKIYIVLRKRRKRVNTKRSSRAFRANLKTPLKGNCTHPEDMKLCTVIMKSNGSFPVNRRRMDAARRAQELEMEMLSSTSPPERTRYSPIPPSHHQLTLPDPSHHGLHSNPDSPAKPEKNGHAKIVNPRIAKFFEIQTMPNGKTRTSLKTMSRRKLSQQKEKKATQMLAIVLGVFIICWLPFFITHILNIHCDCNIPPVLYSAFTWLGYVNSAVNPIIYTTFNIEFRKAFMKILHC
# 5-HT2 receptors = target: T2, 5-HT2 receptors (Rattus norvegicus, UniProt P14842); test: Inhibition of 3H-ketanserin binding to 5-HT2 receptors in membranes from rat cortex; conditions: Receptor Binding, IC50, 5-HT2 3H-Ket
# T2 construct: 5-HT2 receptors in membranes from rat cortex; from tissue; host or cells: membranes from rat cortex
# T2 sequence (P14842 whole entry): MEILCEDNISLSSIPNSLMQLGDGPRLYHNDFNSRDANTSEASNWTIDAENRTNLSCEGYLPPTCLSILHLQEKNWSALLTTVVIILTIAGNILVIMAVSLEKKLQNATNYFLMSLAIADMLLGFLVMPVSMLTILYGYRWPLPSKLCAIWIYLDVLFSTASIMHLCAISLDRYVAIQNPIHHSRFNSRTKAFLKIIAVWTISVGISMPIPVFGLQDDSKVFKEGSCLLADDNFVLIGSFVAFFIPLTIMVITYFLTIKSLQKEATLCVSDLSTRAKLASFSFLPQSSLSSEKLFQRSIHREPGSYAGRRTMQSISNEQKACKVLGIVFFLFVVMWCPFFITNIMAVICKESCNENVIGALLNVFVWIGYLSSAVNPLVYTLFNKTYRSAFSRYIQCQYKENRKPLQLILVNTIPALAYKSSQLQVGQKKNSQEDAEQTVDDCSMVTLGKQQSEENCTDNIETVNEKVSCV
# Experimental: Receptor binding studies.
# 5-HT2 receptors. Inhibition of ^3 H-ketanserin binding to 5-HT2 receptors in membranes from rat cortex was determined as described by Hyttel, J. Acta. Pharmacol. Toxicol.
# [1] = rat striatal membranes, 3H-SCH 23390, read-out: Receptor Binding
# DA D1 receptor, sequence (P18901 whole entry): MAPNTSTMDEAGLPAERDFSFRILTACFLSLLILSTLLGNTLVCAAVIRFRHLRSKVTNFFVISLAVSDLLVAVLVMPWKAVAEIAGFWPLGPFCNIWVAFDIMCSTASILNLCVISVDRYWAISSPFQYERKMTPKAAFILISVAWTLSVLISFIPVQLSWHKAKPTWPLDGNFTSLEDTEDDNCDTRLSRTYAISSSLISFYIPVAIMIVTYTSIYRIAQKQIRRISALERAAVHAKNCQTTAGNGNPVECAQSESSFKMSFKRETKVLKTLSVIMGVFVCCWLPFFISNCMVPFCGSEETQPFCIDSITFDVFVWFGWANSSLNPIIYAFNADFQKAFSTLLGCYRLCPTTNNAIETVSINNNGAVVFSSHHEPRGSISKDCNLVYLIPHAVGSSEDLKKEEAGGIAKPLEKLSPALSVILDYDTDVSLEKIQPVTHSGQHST
Structure (SMILES),IC50 (DA D1 receptor; [1]) [nM],IC50 (DA D2 receptors) [nM],IC50 (5-HT2 receptors) [nM],IC50 (DA D1 receptor; Receptor Binding) [nM]
"OC1CCN2CCN(C3CC(c4ccc(F)cc4)c4ccc(F)cc43)CC2C1 (centres unmarked) [Compound 35, 2-[6-fluoro-3-(4-fluorophenyl)-2,3-dihydro-1H-inden-1-yl]-octahydropyrido[1,2-a]-pyrazine-8-ol]",30,1100,–,–
"CC(C)C1CN([C@@H]2C[C@@H](c3ccc(F)cc3)c3ccc(Cl)cc32)CCN1C (relative stereo) [Compound 22, Trans-4-[6-chloro-3-(4-fluorophenyl)-2,3-dihydro-1H-inden-1-yl]-1-methyl-2-(2-propyl)piperazine]",43,400,–,–
"Cc1ccc2c(c1)[C@H](N1CCNC(C)(C)C1)C[C@H]2c1ccc(F)cc1 (racemic) [Compound 4, (±)-Trans-2,2-dimethyl-4-[6-methyl-3-(4-fluorophenyl)-2,3-dihydro-1H-inden-1-yl]piperazine]",5.9,5.6,1.5,–
"CN1CCN([C@@H]2C[C@@H](c3ccc(F)cc3)c3cccc(F)c32)CC1(C)C (racemic) [Compound 36, (±)-Trans-4-[7-fluoro-3-(4-fluorophenyl)-2,3-dihydro-1H-inden-1-yl]-1,2,2-trimethyl piperazine]",–,74,9.8,3.8
"CN1CCN([C@@H]2C[C@@H](c3ccc(F)cc3)c3c(Cl)cccc32)CC1(C)C (racemic) [Compound 15, (±)-Trans-4-[4-chloro-3-(4-fluorophenyl)-2,3-dihydro-1H-inden-1-yl]-1,2,2-trimethylpiperazine]",45,–,29,–
CN1CCN([C@@H]2C[C@@H](c3ccc(F)cc3)c3ccc(Cl)cc32)CC12CCCC2 (relative stereo) [Compound 29],–,–,5.2,–
"CC1(C)CN([C@@H]2C[C@@H](c3ccc(F)cc3)c3ccc(Cl)cc32)CCN1CCO (racemic) [Compound 43, (±)-Trans-4-[6-chloro-3-(4-fluorophenyl)-2,3-dihydro-1H-inden-1-yl]-2,2-dimethyl-1-piperazineethanol]",1,3,–,–
"CN1CCN([C@@H]2C[C@@H](c3ccc(F)cc3)c3ccc(Cl)cc32)CC12CCCCC2 (racemic) [Compound 32, (±)-Trans-4-[6-chloro-3-(4-fluorophenyl)-2,3-dihydro-1H-inden-1-yl]-1-methyl-1,4-diazaspiro[5.5]undecan]",6,24,–,–
"CN1CCN([C@@H]2C[C@@H](c3ccsc3)c3ccc(Cl)cc32)CC1(C)C (racemic) [Compound 14, (±)-Trans-4-[6-chloro-3-(3-thienyl)-2,3-dihydro-1H-inden-1-yl]-1,2,2-trimethylpiperazine]",–,6.1,1.7,0.76
"CN1CCN([C@@H]2C[C@@H](c3ccccc3F)c3ccc(Cl)cc32)CC1(C)C (racemic) [Compound 11, (±)-Trans-4-[6-chloro-3-(2-fluorophenyl)-2,3-dihydro-1H-inden-1-yl]-1,2,2-trimethylpiperazine]",–,36,21,4.4
OCCN1CCN([C@@H]2C[C@@H](c3ccc(F)cc3)c3ccc(Cl)cc32)CC12CCCC2 (relative stereo) [Compound 44],–,–,6,–
"CC(C)N1CCN([C@@H]2C[C@@H](c3ccc(F)cc3)c3ccc(Cl)cc32)CC1(C)C (single isomer, unassigned) [Compound -40]",–,–,2.5,–
"CC1CN([C@@H]2C[C@@H](c3ccc(F)cc3)c3ccc(Cl)cc32)CCN1C (mixture of isomers) [Compound 18, (±)-Trans-4-[6-chloro-3-(4-fluorophenyl)-2,3-dihydro-1H-inden-1-yl]-1,2-dimethylpiperazine]",2.4,12,–,–
"Fc1ccc([C@@H]2C[C@@H](N3CCNC4(CCCCC4)C3)c3cc(Cl)ccc32)cc1 (racemic) [Compound 31, (±)-Trans-4-[6-chloro-3-(4-fluorophenyl)-2,3-dihydro-1H-inden-1-yl]-1,4-diazaspiro[5.5]undecan]",6.4,75,25,–
"C[C@@H]1CN([C@@H]2C[C@@H](c3ccc(F)cc3)c3ccc(C(F)(F)F)cc32)C[C@H](C)N1 (racemic) [Compound 27, (±)-Trans-4-[6-trifluoromethyl-3-(4-fluorophenyl)-2,3-dihydro-1H-inden-1-yl]-cis-2,6-dimethylpiperazine]",50,33,–,–
"CC(C)N1CCN([C@@H]2C[C@@H](c3ccc(F)cc3)c3ccc(Cl)cc32)CC12CCCC2 (racemic) [Compound 42, (±)-Trans-9-[6-chloro-3-(4-fluorophenyl)-2,3-dihydro-1H-inden-1-yl]-6-(2-propyl)-6,9-diazaspiro[4.5]decane]",1.3,8.8,–,–

Structure (SMILES),IC50 (DA D1 receptor; [1]) [nM],IC50 (DA D2 receptors) [nM],IC50 (5-HT2 receptors) [nM],IC50 (DA D1 receptor; Receptor Binding) [nM]
"CN1CCN([C@@H]2C[C@@H](c3ccc(F)cc3)c3ccc(C(F)(F)F)cc32)CC1(C)C (racemic) [Compound 7, (±)-Trans-4-[6-trifluoromethyl-3-(4-fluorophenyl)-2,3-dihydro-1H-inden-1-yl]-1,2,2-trimethylpiperazine]",–,5.7,4.5,1.5
"CC1(C)CN([C@@H]2C[C@@H](c3ccsc3)c3ccc(Cl)cc32)CCN1 (racemic) [Compound 13, (±)-Trans-4-[6-chloro-3-(3-thienyl)-2,3-dihydro-1H-inden-1-yl]-2,2-dimethylpiperazine]",–,8.2,1,1.4
"C[C@@H]1CN([C@@H]2C[C@@H](c3ccc(F)cc3)c3ccc(Cl)cc32)C[C@H](C)N1C (relative stereo) [Compound 26, (±)-Trans-4-[6-chloro-3-(4-fluorophenyl)-2,3-dihydro-1H-inden-1-yl]-(1-cis-2,6-trimethyl)piperazine]",–,–,3.3,–
"CN1CCN([C@@H]2C[C@@H](c3ccc(F)cc3)c3ccc(Cl)cc32)CC12CCCC2 (single isomer, unassigned) [+29, (+)-Trans-9-[6-chloro-3-(4-fluorophenyl)-2,3-dihydro-1H-inden-1-yl]-6-methyl-6,9-diazaspiro[4.5]decane]",–,–,13,–
"CN1CCN([C@@H]2C[C@@H](c3ccc(F)cc3)c3ccc(Cl)cc32)CC12CCCC2 (single isomer, unassigned) [Compound -29]",–,–,4,–
"CN1CCN([C@@H]2C[C@@H](c3ccsc3)c3ccc(Cl)cc32)CC12CCCC2 (racemic) [Compound 30, (±)-Trans-9-[6-chloro-3-(3-thienyl)-2,3-dihydro-1H-inden-1-yl]-6-methyl-6,9-diazaspiro[4.5]decane]",1.8,5,–,–
CC(C)N1CCN([C@@H]2C[C@@H](c3ccc(F)cc3)c3ccc(Cl)cc32)CC1(C)C (relative stereo) [Compound 40],–,–,4.1,–
"CCC1(CC)CN([C@@H]2C[C@@H](c3ccc(F)cc3)c3ccc(Cl)cc32)CCN1C (racemic) [Compound 24, (±)-Trans-4-[6-chloro-3-(4-fluorophenyl)-2,3-dihydro-1H-inden-1-yl]-2,2-diethyl-1-methylpiperazine]",8.8,38,–,–
"CC(C)C1CN([C@@H]2C[C@@H](c3ccc(F)cc3)c3ccc(Cl)cc32)CCN1C (relative stereo) [Compound 21, Trans-4-[6-chloro-3-(4-fluorophenyl)-2,3-dihydro-1H-inden-1-yl]-1-methyl-2-(2-propyl)piperazine]",3.2,36,–,–
"OCCN1CCN([C@@H]2C[C@@H](c3ccc(F)cc3)c3ccc(Cl)cc32)CC12CCCC2 (single isomer, unassigned) [Compound -44]",–,–,2.5,–
"CC1(C)CN([C@@H]2C[C@@H](c3ccsc3)c3ccc(Cl)cc32)CCN1CCO (racemic) [Compound 45, (±)-Trans-4-[6-chloro-3-(3-thienyl)-2,3-dihydro-1H-inden-1-yl]-2,2-dimethyl-1-piperazineethanol]",0.82,2.8,–,–
"CC1(C)CN([C@@H]2C[C@@H](c3ccc(F)cc3)c3ccc(C(F)(F)F)cc32)CCN1 (racemic) [Compound 6, (±)-Trans-2,2-dimethyl-4-[6-trifluoromethyl-3-(4-fluorophenyl)-2,3-dihydro-1H-inden-1-yl]piperazine]",2.8,5.2,–,–
"CC1CN([C@@H]2C[C@@H](c3ccc(F)cc3)c3ccc(Cl)cc32)C(C)CN1C (relative stereo) [Compound 25, (±)-Trans-4-[6-chloro-3-(4-fluorophenyl)-2,3-dihydro-1H-inden-1-yl]-(1-trans-2,5-trimethyl)piperazine]",–,–,3.4,–
"CC(C)N1CCN([C@@H]2C[C@@H](c3ccc(F)cc3)c3ccc(Cl)cc32)CC1C (mixture of isomers) [Compound 41, (±)-Trans-4-[6-chloro-3-(4-fluorophenyl)-2,3-dihydro-1H-inden-1-yl]-2-methyl-1-(2-propyl)piperazine]",1.6,17,–,–
"Fc1ccc([C@@H]2C[C@@H](N3CCN4CCCCC4C3)c3cc(Cl)ccc32)cc1 (mixture of isomers) [Compound 34, (±)-Trans-2-[6-chloro-3-(4-fluorophenyl)-2,3-dihydro-1H-inden-1-yl]-octahydropyrido[1,2-a]pyrazine]",2.1,11,–,–
"CN1CCN([C@@H]2C[C@@H](c3ccc(F)cc3)c3ccc(Cl)cc32)CC12CCC2 (racemic) [Compound 28, (±)-Trans-8-[6-chloro-3-(4-fluorophenyl)-2,3-dihydro-1H-inden-1-yl]-5-methyl-5,8-diazaspiro[3.5]nonane]",–,6.3,3,–
